Source: US20030053995A1 (priority 2001, published 2003)
Where two headings read alike, the source gives them in different places. One block for each molecule: values may come before it. Starred links: 1 amine or outer side, 2 acyl side, 3 side chain; linkers in the order of their positions; H or OH if unused. Positions of bridges follow the written chain, without caps; N, C: chain ends. Non-standard residues stand in square brackets, D forms with d. Residues, ends and D or L forms follow the SMILES beside them. Chains are numbered I, II in the order given. Actinocin(9to1) = Cc1c2oc3c(C)ccc(C(=O)[*:1])c3nc-2c(C(=O)[*:2])c(N)c1=O; NMeV = CN[C@H](C(=O)O)C(C)C; Sar = CNCC(=O)O

Columns and labels:
[1] = cited from earlier work; for dose excreted/detected intact in the urine: in vivo; for half-life of disappearance from plasma: after intravenous injection, after distribution; for binding to plasma proteins: result in words
[2] = cited from earlier work
[3] = system: ATRS (AT-rich consensus sequence) luciferase reporter with TK minimal promoter; assay: EGF activation of ATRS luciferase reporter; format: cell-based
From the text: (FIG. 6A) A431, (FIG. 6B) MDA-MB-468, (FIG. 6C) HBL 100, and (FIG. 6D) CHO cells.
Next, four repeats of either the ATRS sites or the mutated sites were constructed in a luciferase reporter construct containing the mouse thymidine kinase gene (TK) minimal promoter. […] EGFR-dependent activation, however, could be restored in these two cell lines upon the cotransfection of the EGFR expression vector. Thus, the ATRS, which can bind to nuclear EGFR complex, responds to EGFR-dependent activation, whereas the mutant ATRS, which fails to bind to nuclear EGFR, loses it ability to respond to the EGFR-dependent activation.
Plasmids and transfection. The cytoplasmic domain (645-1186), tyrosine kinase domain (645-1011), and C-terminal proline rich region (1011-1086) of human EGFR were amplified by PCR and subcloned in frame into pSG424 to generate for each domain a fusion protein containing GAL4 DNA binding proteins. The fusion protein constructs were then transfected into a variety of cell lines along with GAL4CAT or GAL4Luc reporter plasmids via liposomal DC-Cole provide by Dr. Leaf Huang at University of Pittsburgh.

[4] = system: Cyclin D1 promoter (Cyclin D1-luc) in MDA-MB-468 cells; assay: EGF activation of Cyclin D1 promoter luciferase reporter; format: cell-based; conditions: EGF 100 ng/ml
From the text: In FIG. 7A, MDA-MB-468 cells were transfected with a luciferase vector containing the cyclin D1 promoter with two intact ATRS or the same promoter with the ATRS mutated. […] After precipitation with the EGFR antibodies (1 Santa Cruz, 2 NeoMarkers) or normal rabbit IgG, cyclin D1 promoter region was amplified by PCR. Input nuclear DNA (In) or water (dw) were used as PCR controls.
Targets for nuclear EGFR were identified. Since nuclear EGFR correlated with highly proliferative activity of cells, it was suspected that its target genes were likely involved in cell proliferation. One of the candidates, Cyclin D1, is a cell-cycle regulator essential for G1 phase progression. […] Two ATRS sequences are located in the proximal region of Cyclin D1 promoter between nucleotide −74 to −70 (TTTAT; SEQ ID NO:3) and −31 to −27 (TTTGT; SEQ ID NO:4), respectively. To test whether these two ATRS in Cyclin D1 promoter were responsive to EGFR activity, the reporter gene containing 163 bp of the Cyclin Dl promoter (Cyclin D1-luc) was tested. Many known transcription factor-binding sites had been eliminated from this construct but it still contained two ATRS described above.

[5] = EGFR-overexpressing cell lines A431 and MDA-MB-468, EGF 100 ng/ml

Molecule: Cc1c2oc3c(C)ccc(C(=O)N[C@@H]4C(=O)N[C@H](C(C)C)C(=O)N5CCC[C@H]5C(=O)N(C)CC(=O)N(C)[C@@H](C(C)C)C(=O)O[C@@H]4C)c3nc-2c(C(=O)N[C@@H]2C(=O)N[C@H](C(C)C)C(=O)N3CCC[C@H]3C(=O)N(C)CC(=O)N(C)[C@@H](C(C)C)C(=O)O[C@@H]2C)c(N)c1=O [Actinomycin D] (I: T[dV]P[Sar][NMeV] / II: T[dV]P[Sar][NMeV]; ester I:1-I:C, II:1-II:C; linker I:N-II:N via Actinocin(9to1))
- dose excreted/detected intact in the urine [1]: 10%

Molecule: O=NN(CCCl)C(=O)NCCCl [Carmustine, 1,3bis (2-chloroethyl)-1-nitrosourea]
- solubility in organic solvents / alcohol and lipids ([2]; result in words): highly soluble in alcohol and lipids

Molecule: O=NN(CCCl)C(=O)NC1CCCCC1 [Lomustine, 1-(2-chloro-ethyl)-3-cyclohexyl-1 nitrosourea]
- solubility ([2]; 10% ethanol): 0.05 mg per mL
- solubility ([2]; absolute alcohol): 70 mg per mL
- solubility ([2]; water): < 0.05 mg per mL
- tissue levels relative to plasma levels ([1]; 15 minutes after intravenous administration): comparable to plasma levels

Molecule: CC[C@]1(O)C[C@@H]2CN(CCc3c([nH]c4ccccc34)[C@@](C(=O)OC)(c3cc4c(cc3OC)N(C)[C@H]3[C@@](O)(C(=O)OC)[C@H](OC(C)=O)[C@]5(CC)C=CCN6CC[C@]43[C@@H]65)C2)C1 [Vinblastine]
- half-life of disappearance from plasma ([1]; first of two half-lives): approximately 1 hours
- half-life of disappearance from plasma ([1]; second of two half-lives): ~20 h
- dose excreted/detected intact in the urine [1]: Approximately 15%
- binding to plasma proteins [1]: bind to plasma proteins

Molecule: CC[C@]1(O)C[C@H]2CN(CCc3c([nH]c4ccccc34)[C@@](C(=O)OC)(c3cc4c(cc3OC)N(C=O)[C@H]3[C@@](O)(C(=O)OC)[C@H](OC(C)=O)[C@]5(CC)C=CCN6CC[C@]43[C@@H]65)C2)C1 [Vincristine]
- binding to plasma proteins [1]: bind to plasma proteins

- activation of mutant ATRS reporter construct [3, 5]: only weakly activate
- activation of wild-type ATRS reporter construct [3, 5]: strongly activate
Molecule: EGF: epidermal growth factor, ligand for EGFR
- activation of wild type or mutant ATRS reporter ([3]; cells with low (HBL100) or no EGFR (CHO), EGF 100 ng/ml): neither wild type nor the mutant reporter could be activated
- activation of Cyclin D1-luc(m) reporter with both ATRS mutated [4]: abolished
- activation of wild-type Cyclin D1-luc reporter [4]: up to four fold
